IC50 and JAK2/JAK1 data for 21 compounds are collected here from US11992490B2, “Use of JAK1 inhibitors for the treatment of cutaneous lupus erythematosus and Lichen planus (LP)” (Incyte Corporation, priority 2019, dated 2024).

Test [1] has as its target human JAK1 (a.a. 837-1142) (Homo sapiens, UniProt P23458). The test is described as follows: In vitro JAK kinase assay (HTRF), JAK1. The following applies: 1 mM ATP. It is filed as biochemical. (In TR-FRET formats the signal depends on donor and acceptor labels being close together.)
Test [2] has as its target human JAK2 (a.a. 828-1132) (Homo sapiens (Human), UniProt O60674). Briefly: In vitro JAK kinase assay (HTRF), JAK2. It is filed as biochemical. The conditions noted are these: JAK2/JAK1 IC50 ratio, 1 mM ATP.

human JAK2 (a.a. 828-1132), sequence (O60674 828-1132): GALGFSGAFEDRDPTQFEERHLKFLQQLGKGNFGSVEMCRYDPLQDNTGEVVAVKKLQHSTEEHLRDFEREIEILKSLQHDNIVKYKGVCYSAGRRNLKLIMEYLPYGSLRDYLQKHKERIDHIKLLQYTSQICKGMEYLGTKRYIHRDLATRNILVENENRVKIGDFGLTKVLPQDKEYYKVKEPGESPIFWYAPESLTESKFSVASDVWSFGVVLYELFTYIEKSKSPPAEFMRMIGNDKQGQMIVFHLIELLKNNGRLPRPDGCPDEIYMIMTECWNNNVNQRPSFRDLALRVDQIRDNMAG

One may read the IC50 as the concentration that inhibits the measured activity by half. In the case of `N#CCC1(n2cc(-c3ncnc4[nH]ccc34)cn2)CN([C@H]2CC[C@@H](Oc3cc(CCO)nc(C(F)(F)F)n3)CC2)C1` [Compound 18, {1-(cis-4-{[6-(2-hydroxyethyl)-2-(trifluoromethyl)pyrimidin-4-yl]oxy}cyclohexyl)-3-[4-(7H-pyrrolo[2,3-d]pyrimidin-4-yl)-1H-pyrazol-1-yl]azetidin-3-yl}acetonitrile], the IC50 in test [1] was less than 10 nM. Besides, in test [2], the JAK2/JAK1 is reported as greater than 10.

As for `N#CC[C@]1(n2cc(-c3ncnc4[nH]ccc34)cn2)C[C@H](N2CCN(C(=O)c3ccnc(C(F)(F)F)n3)CC2)C1` [Compound 10, [trans-1-[4-(7H-pyrrolo[2,3-d]pyrimidin-4-yl)-1H-pyrazol-1-yl]-3-(4-{[2-(trifluoromethyl)pyrimidin-4-yl]carbonyl}piperazin-1-yl)cyclobutyl]acetonitrile], the IC50 in test [1] was less than 10 nM. Further, the JAK2/JAK1 in test [2] is greater than 10.

Turning to `CCNCc1cc(O[C@H]2CC[C@@H](N3CC(CC#N)(n4cc(-c5ncnc6[nH]ccc56)cn4)C3)CC2)nc(C(F)(F)F)c1` [Compound 19, {1-(cis-4-{[4-[(ethylamino)methyl]-6-(trifluoromethyl)pyridin-2-yl]oxy}cyclohexyl)-3-[4-(7H-pyrrolo[2,3-d]pyrimidin-4-yl)-1H-pyrazol-1-yl]azetidin-3-yl}acetonitrile], the IC50 in test [1] is less than 10 nM. In addition, the JAK2/JAK1 in test [2] is given as greater than 10.

The compound `CC(C)(O)c1cc(O[C@H]2CC[C@@H](N3CC(CC#N)(n4cc(-c5ncnc6[nH]ccc56)cn4)C3)CC2)nc(C(F)(F)F)c1` [Compound 20, {1-(cis-4-{[4-(1-hydroxy-1-methylethyl)-6-(trifluoromethyl)pyridin-2-yl]oxy}cyclohexyl)-3-[4-(7H-pyrrolo[2,3-d]pyrimidin-4-yl)-1H-pyrazol-1-yl]azetidin-3-yl}acetonitrile] showed an IC50 in test [1] of less than 10 nM. Further, the JAK2/JAK1 in test [2] was greater than 10.

With `N#CCC1(n2cc(-c3ncnc4[nH]ccc34)cn2)CN(C2CCN(C(=O)Nc3ccc(F)cc3C(F)(F)F)CC2)C1` [Compound 2, 4-{3-(Cyanomethyl)-3-[4-(7H-pyrrolo[2,3-d]pyrimidin-4-yl)-1H-pyrazol-1-yl]azetidin-1-yl}-N-[4-fluoro-2-(trifluoromethyl)phenyl]piperidine-1-carboxamide], in test [1], the IC50 is less than 10 nM. Further, in test [2], the JAK2/JAK1 is listed as greater than 10.

Turning to `N#CC[C@]1(n2cc(-c3ncnc4[nH]ccc34)cn2)C[C@H](N2CCC(Oc3cc(CN4CC(O)C4)cc(C(F)(F)F)n3)CC2)C1` [Compound 11, {trans-3-(4-{[4-[(3-hydroxyazetidin-1-yl)methyl]-6-(trifluoromethyl)pyridin-2-yl]oxy}piperidin-1-yl)-1-[4-(7H-pyrrolo[2,3-d]pyrimidin-4-yl)-1H-pyrazol-1-yl]cyclobutyl}acetonitrile], the IC50 in test [1] is less than 10 nM. The JAK2/JAK1 in test [2] was greater than 10.

`N#CCC(C1CCN(c2cccc(Cl)n2)C1)n1cc(-c2ncnc3[nH]ccc23)cn1` (single isomer, unassigned) [Compound 6, 3-[1-(6-chloropyridin-2-yl)pyrrolidin-3-yl]-3-[4-(7H-pyrrolo[2,3-d]pyrimidin-4-yl)-1H-pyrazol-1-yl]propanenitrile] had an IC50 in test [1] of less than 10 nM. Further, the JAK2/JAK1 in test [2] was greater than 10.

In the case of `N#CCC(C1CCN(c2nc3cccnc3o2)C1)n1cc(-c2ncnc3[nH]ccc23)cn1` (stereo not drawn) [Compound 7, 3-(1-[1,3]oxazolo[5,4-b]pyridin-2-ylpyrrolidin-3-yl)-3-[4-(7H-pyrrolo[2,3-d]pyrimidin-4-yl)-1H-pyrazol-1-yl]propanenitrile], the IC50 in test [1] is less than 10 nM. Also, the JAK2/JAK1 in test [2] was greater than 10.

The compound `C[C@H](O)CNCc1cc(OC2CCN([C@H]3C[C@](CC#N)(n4cc(-c5ncnc6[nH]ccc56)cn4)C3)CC2)nc(C(F)(F)F)c1` [Compound 25, {trans-3-(4-{[4-({[(2S)-2-hydroxypropyl]amino}methyl)-6-(trifluoromethyl)pyridin-2-yl]oxy}piperidin-1-yl)-1-[4-(7H-pyrrolo[2,3-d]pyrimidin-4-yl)-1H-pyrazol-1-yl]cyclobutyl}acetonitrile] returned an IC50 in test [1] of less than 10 nM. Besides, in test [2], the JAK2/JAK1 is greater than 10.

With `C[C@@H](CO)NCc1cc(OC2CCN([C@H]3C[C@](CC#N)(n4cc(-c5ncnc6[nH]ccc56)cn4)C3)CC2)nc(C(F)(F)F)c1` [Compound 23, {trans-3-(4-{[4-({[(1S)-2-hydroxy-1-methylethyl]amino}methyl)-6-(trifluoromethyl)pyridin-2-yl]oxy}piperidin-1-yl)-1-[4-(7H-pyrrolo[2,3-d]pyrimidin-4-yl)-1H-pyrazol-1-yl]cyclobutyl}acetonitrile], the IC50 in test [1] is less than 10 nM. For the same compound, the JAK2/JAK1 in test [2] was greater than 10.

Consider `C[C@@H](O)c1nc2cnc3ccsc3c2n1[C@H]1CC[C@H](CC#N)OC1` [Compound 5, ((2R,5S)-5-{2-[(1R)-1-hydroxyethyl]-1H-imidazo[4,5-d]thieno[3,2-b]pyridin-1-yl}tetrahydro-2H-pyran-2-yl)acetonitrile], for which the IC50 in test [1] was less than 100 nM. The JAK2/JAK1 in test [2] is greater than 10.

In turn, `N#CC[C@]1(n2cc(-c3ncnc4[nH]ccc34)cn2)C[C@H](N2CCC(Oc3cc(CN4CCC[C@H]4CO)cc(C(F)(F)F)n3)CC2)C1` [Compound 12, {trans-3-(4-{[4-{[(2S)-2-(hydroxymethyl)pyrrolidin-1-yl]methyl}-6-(trifluoromethyl)pyridin-2-yl]oxy}piperidin-1-yl)-1-[4-(7H-pyrrolo[2,3-d]pyrimidin-4-yl)-1H-pyrazol-1-yl]cyclobutyl}acetonitrile] registered an IC50 in test [1] of less than 10 nM. In addition, the JAK2/JAK1 in test [2] is given as greater than 10.

Regarding `N#CCC1(n2cc(-c3ncnc4[nH]ccc34)cn2)CN([C@H]2CC[C@@H](Oc3cc(CN4CC[C@@H](O)C4)cc(C(F)(F)F)n3)CC2)C1` [Compound 21, {1-(cis-4-{[4-{[(3R)-3-hydroxypyrrolidin-1-yl]methyl}-6-(trifluoromethyl)pyridin-2-yl]oxy}cyclohexyl)-3-[4-(7H-pyrrolo[2,3-d]pyrimidin-4-yl)-1H-pyrazol-1-yl]azetidin-3-yl}acetonitrile], in test [1], the IC50 is less than 10 nM. Further, the JAK2/JAK1 in test [2] was greater than 10.

For the compound `C[C@@H](O)CNCc1cc(OC2CCN([C@H]3C[C@](CC#N)(n4cc(-c5ncnc6[nH]ccc56)cn4)C3)CC2)nc(C(F)(F)F)c1` [Compound 24, {trans-3-(4-{[4-({[(2R)-2-hydroxypropyl]amino}methyl)-6-(trifluoromethyl)pyridin-2-yl]oxy}piperidin-1-yl)-1-[4-(7H-pyrrolo[2,3-d]pyrimidin-4-yl)-1H-pyrazol-1-yl]cyclobutyl}acetonitrile], the IC50 in test [1] is less than 10 nM. The JAK2/JAK1 in test [2] is recorded as greater than 10.

With `N#CCC(CN1CCN(C(=O)c2ccc(C#N)cc2F)CC1)n1ccc(-c2ncnc3[nH]ccc23)c1` (stereo not drawn) [Compound 9, 4-[(4-{3-cyano-2-[3-(7H-pyrrolo[2,3-d]pyrimidin-4-yl)-1H-pyrrol-1-yl]propyl}piperazin-1-yl)carbonyl]-3-fluorobenzonitrile], the IC50 in test [1] was less than 10 nM. In test [2], the JAK2/JAK1 is greater than 10.

`N#CCC1(n2cc(-c3ncnc4[nH]ccc34)cn2)CN(C2CCN(C(=O)c3ccnc(C(F)(F)F)n3)CC2)C1` [Compound 3, [3-[4-(7H-pyrrolo[2,3-d]pyrimidin-4-yl)-1H-pyrazol-1-yl]-1-(1-{[2-(trifluoromethyl)pyrimidin-4-yl]carbonyl}piperidin-4-yl)azetidin-3-yl]acetonitrile]: the IC50 in test [1] is less than 10 nM. In test [2], the JAK2/JAK1 was greater than 10.

Compound `N#CCC1(n2cc(-c3ncnc4[nH]ccc34)cn2)CN([C@H]2CC[C@@H](Oc3cc(CN4CC[C@H](O)C4)cc(C(F)(F)F)n3)CC2)C1` [Compound 22, {1-(cis-4-{[4-{[(3S)-3-hydroxypyrrolidin-1-yl]methyl}-6-(trifluoromethyl)pyridin-2-yl]oxy}cyclohexyl)-3-[4-(7H-pyrrolo[2,3-d]pyrimidin-4-yl)-1H-pyrazol-1-yl]azetidin-3-yl}acetonitrile] gave an IC50 in test [1] of less than 10 nM. Further, in test [2], the JAK2/JAK1 is given as greater than 10.

With `N#CCC(CN1CCN(C(=O)c2ccc(C#N)cc2F)CC1)n1cc(-c2ncnc3[nH]ccc23)cn1` (stereo not drawn) [Compound 8, 4-[(4-{3-cyano-2-[4-(7H-pyrrolo[2,3-d]pyrimidin-4-yl)-1H-pyrazol-1-yl]propyl}piperazin-1-yl)carbonyl]-3-fluorobenzonitrile], the IC50 in test [1] was less than 10 nM. The JAK2/JAK1 in test [2] is recorded as greater than 10.

`N#CC[C@]1(n2cc(-c3ncnc4[nH]ccc34)cn2)C[C@H](N2CCC(Oc3cc(CN4CCC[C@@H]4CO)cc(C(F)(F)F)n3)CC2)C1` [Compound 13, {trans-3-(4-{[4-{[(2R)-2-(hydroxymethyl)pyrrolidin-1-yl]methyl}-6-(trifluoromethyl)pyridin-2-yl]oxy}piperidin-1-yl)-1-[4-(7H-pyrrolo[2,3-d]pyrimidin-4-yl)-1H-pyrazol-1-yl]cyclobutyl}acetonitrile] returned an IC50 in test [1] of less than 10 nM. The JAK2/JAK1 in test [2] is listed as greater than 10.

`N#CC[C@]1(n2cc(-c3ncnc4[nH]ccc34)cn2)C[C@H](N2CCC(Oc3cc(CCO)cc(C(F)(F)F)n3)CC2)C1` [Compound 26, {trans-3-(4-{[4-(2-hydroxyethyl)-6-(trifluoromethyl)pyridin-2-yl]oxy}piperidin-1-yl)-1-[4-(7H-pyrrolo[2,3-d]pyrimidin-4-yl)-1H-pyrazol-1-yl]cyclobutyl}acetonitrile] gave an IC50 in test [1] of less than 10 nM. In addition, the JAK2/JAK1 in test [2] is on record as greater than 10.

`C[C@H](NC(=O)c1cc(F)c(N2CC(CC#N)(n3cc(-c4ncnc5[nH]ccc45)cn3)C2)cc1F)C(F)(F)F` [Compound 16, 4-{3-(cyanomethyl)-3-[4-(7H-pyrrolo[2,3-d]pyrimidin-4-yl)-1H-pyrazol-1-yl]azetidin-1-yl}-2,5-difluoro-N-[(1S)-2,2,2-trifluoro-1-methylethyl]benzamide] had an IC50 in test [1] of less than 10 nM. The JAK2/JAK1 in test [2] is reported as greater than 10.
